Results: patent publication US8129530B2, “Catecholamine derivatives and prodrugs thereof” (H. Lundbeck A/S, priority 2007, dated 2012)

Experiments:
PD patients = settings: intravenous (IV); cited from earlier work
[1] = test system: mouse model of severe dopamine depletion; assay: Superiority model; type: in vivo; settings: mice
Excerpt: Both Apomorphine and L-DOPA stimulate D1 and D2-like dopamine receptors.

## CCCc1cc2c(s1)CN[C@@H]1CCc3cc(OC(C)=O)c(OC(C)=O)cc3[C@@H]21 [Adrogolide]
PD patients
  antiparkinson efficacy: comparable to that of L-DOPA

## N[C@@H](Cc1ccc(O)c(O)c1)C(=O)O [L-DOPA, (levo)-3,4-dihydroxy phenylalanine]
[1]
  reversal of motility deficits / restoration of locomotion: able to reverse motility deficits

## CN1CCc2cccc3c2[C@H]1Cc1ccc(O)c(O)c1-3 [Apomorphine]
[1]
  reversal of motility deficits / restoration of locomotion: able to reverse motility deficits
